How the values were obtained:
[1] = system: tobacco hornworm larvae (newly ecdysed fifth-instar); assay: Topical application to tobacco hornworm larvae; format: in vivo, Manduca sexta
Procedure: The test compounds were dissolved either in acetone or hexane and applied to the integument of the test insect with a micro applicator. Newly ecdysed fifth-instar tobacco hornworm larvae weighing between 1-1.5 g were used and toxicity data were obtained in the same way as previously described.

[2] = system: Salmonella typhimurium strains TA 98, TA 100, TA 1535, TA 1537, TA 1538, TA 1978; assay: Ames assay (spot test), revertant colonies; format: cell-based
How it was run: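 Spot test: 1000 μgm compound in 10 μl DMSO applied to plate centre, with and without rat liver S9; TA 98/1537/1538 detect frameshift, TA 100/1535 base-pair changes, TA 1978 with TA 1538 for repairable DNA damage. Revertants to histidine prototrophy scored; AAF positive and DMSO negative controls; no dose-response testing.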

[3] = Acute oral toxicity test using the rat; conditions: in vivo
Text: In these studies, it has been determined that the 1,2-diphenylaziridines of this invention have low mammalian toxicity.
Immediate effects, resulting from insecticide toxicity, are usually related to the principal toxic action of the compound.

[4] = system: tobacco hornworm (Manduca sexta) larvae; assay: Tobacco hornworm growth and developmental responses to feeding on diets containing the compounds; format: in vivo; conditions: for oral activity: diet, Example 2
H. virescens = assay: Incorporation into H. virescens diet; format: in vivo, Heliothis virescens; conditions: as much as 20 mM in diet
Procedure: Compounds 1, 10, 11, 13 and 14 were incorporated into H. virescens diet in the same manner as M. Sexta. Diets containing as much as 20 mM of each compound had little effect on larval development time, pupal weight or time to adult emergence.

H. virescens larvae = assay: Topical application to H. virescens larvae; format: in vivo, Heliothis virescens; conditions: 1500 ppm topical, 200 mg 5th instars
[5] = system: Podisus maculiventris (nymphs & adults); assay: Topical application study, Podisus maculiventris nymphs & adults; format: in vivo; conditions: 10,000 μg/g
Text: (§1) Preliminary tests with topical applications of Compound 13 have been conducted on a number of insect species representing 5 different orders. Since the same amount of compound was used, regardless of body size, the smaller species received a larger dose/body mass. More extensive work will be required to establish LD50 values. […]

[6] = system: Periplaneta americana (adult); assay: Topical application study, Periplaneta americana adult; format: in vivo; conditions: 666 μg/g, approx. 750 mg, w/in 24 hr
Text: as §1

Estigmene acrea (larvae) = assay: Topical application study, Estigmene acrea larvae; format: in vivo; conditions: 1250 μg/g, approx. 800 mg, w/in 24 hr
Text: as §1

[7] = system: Hyphantria cunea (larvae); assay: Topical application study, Hyphantria cunea larvae; format: in vivo; conditions: 5000 μg/g, approx. 100 mg, w/in 24 hr
Text: as §1

[8] = system: Popillia japonica (larvae); assay: Topical application study, Popillia japonica larvae; format: in vivo; conditions: 500 μg/g, approx. 250 mg, w/in 24 hr
Text: as §1

[9] = system: Blaberus discoidalis (nymphs); assay: Topical application study, Blaberus discoidalis nymphs; format: in vivo; conditions: 1000 μg/g, approx. 500 mg, w/in 24 hr
Text: as §1

Musca autumnalis (Adult) = assay: Topical application study, Musca autumnalis adult; format: in vivo; conditions: 25,000 μg/g
Text: as §1

[10] = system: Ostrinia nubilalis (larvae); assay: Topical application study, Ostrinia nubilalis larvae; format: in vivo; conditions: 6250 μg/g, approx. 80 mg; nearing pupation size at time of treatment
Text: as §1

[11] = system: Blattella germanica (adult); assay: Topical application study, Blattella germanica adult; format: in vivo; conditions: 7150 μg/g, approx. 70 mg, w/in 24 hr
Text: as §1

[12] = system: Malacosoma americanum (larvae); assay: Topical application study, Malacosoma americanum larvae; format: in vivo; conditions: 1000 μg/g, approx. 500 mg, w/in 24 hr
Text: as §1

Musca domestica (Adult) = assay: Topical application study, Musca domestica adult; format: in vivo; conditions: 25,000 μg/g
Text: as §1

[13] = 5 mM in diet, all tests began with 15 larvae

Clc1ccc(N2CC2c2ccccc2Cl)cc1Cl (centres unmarked) [Compound 10, 1-(3-4-dichlorophenyl)-2-(2-chlorophenyl)aziridine]
topical effect ([1]; 2000 μg/larvae (1600 ppm)): ineffective | Mean number of revertant colonies per plate, TA 98 +S9 ([2]; strain TA 98, +S9): 45.3 colonies per plate | Mean number of revertant colonies per plate, TA 98 -S9 ([2]; strain TA 98, -S9): 26.7 colonies per plate | Mean number of revertant colonies per plate, TA 100 +S9 ([2]; strain TA 100, +S9): 56.0 colonies per plate | Mean number of revertant colonies per plate, TA 100 -S9 ([2]; strain TA 100, -S9): 26.3 colonies per plate | Mean number of revertant colonies per plate, TA 1535 +S9 ([2]; strain TA 1535, +S9): 20.3 colonies per plate | Mean number of revertant colonies per plate, TA 1535 -S9 ([2]; strain TA 1535, -S9): 25.0 colonies per plate | Mean number of revertant colonies per plate, TA 1537 +S9 ([2]; strain TA 1537, +S9): 13.7 colonies per plate | Mean number of revertant colonies per plate, TA 1537 -S9 ([2]; strain TA 1537, -S9): 9.0 colonies per plate | Mean number of revertant colonies per plate, TA 1538 +S9 ([2]; strain TA 1538, +S9): 35.7 colonies per plate | Mean number of revertant colonies per plate, TA 1538 -S9 ([2]; strain TA 1538, -S9): 12.0 colonies per plate | Mean number of revertant colonies per plate, TA 1978 +S9 ([2]; strain TA 1978, +S9): 202.0 colonies per plate | Mean number of revertant colonies per plate, TA 1978 -S9 ([2]; strain TA 1978, -S9): 196.0 colonies per plate | mutagenicity ([2]; with and without S9 / mammalian liver enzymes): not mutagenic | LD50 [3]: > 2000 mg/kg | % Adult Emergence ([4]; 5 mM in diet): 7% | % Malformed Adults ([4]; 5 mM in diet): 100% | % Pupation ([4]; 5 mM in diet): 80% | Days to Max Wt ([4]; 5 mM in diet): 7.5 ± .3 days | Max Larval Wt ([4]; 5 mM in diet): 5.69 ± .27 g | Mean No. of Eggs ([4]; 5 mM in diet): 55 ± 0 | No. of female Adults ([4]; 5 mM in diet): 1 | feeding time required to attain reduced maximum weight ([4]; 5 mM in diet): extended the feeding time | pupal mortality ([4]; 5 mM in diet): significant pupal mortality | reduction in the maximum weight of hornworm larvae ([4]; 5 mM in diet): 30-50% | wrinkled or crumpled wings of moths ([4]; 5 mM in diet): observed in significant numbers of moths | Total No. of Adults [4, 13]: 1 | oral activity [4]: good oral activity | pupal mortality ([4]; summary of Tables I and II): caused pupal mortality | effect on larval development time, pupal weight or time to adult emergence (H. virescens): little effect

Fc1ccc(N2CC2c2ccccc2Cl)cc1 (centres unmarked) [Compound 13]
mortality (H. virescens larvae): failed to kill any of the larvae | symptoms (H. virescens larvae): produced some of the symptoms characteristic of this group of compounds | time to 100% mortality [5]: ≤ 1.2 h | mortality at 10000 µg/g ([5]; Podisus maculiventris, topical, approx. 50 mg, w/in 1.2 hr): 100% | mortality at 666 µg/g [6]: 100% | mortality at 1250 µg/g (Estigmene acrea (larvae)): 33% | mortality at 5000 µg/g [7]: 50% | mortality at 500 µg/g [8]: 100% | mortality at 1000 µg/g [9]: 100% | time to 100% mortality (Musca autumnalis (Adult)): ≤ 2 h | mortality at 25000 µg/g (Musca autumnalis (Adult); Musca autumnalis, topical, approx. 20 mg, w/in 2 hr): 100% | mortality at 125 µg/larva ([1]; Manduca sexta, topical, 125 μg/larva (100 μg/g or 100 ppm), within 24 hr): 60% | topical activity against the tobacco hornworm (comparison in words) ([1]; topical): the greatest topical activity | larval size and number of eggs ([1]; topical, 50 and 25 ppm): reduced larval size and smaller number of eggs | % Adult Emergence ([4]; 1 mM in diet): 100% | % Adults ([4]; 1 mM in diet): 100% | % Malformed Adults ([4]; 1 mM in diet): 7% | % Pupation ([4]; 1 mM in diet): 100% | Days to Max Wt ([4]; 1 mM in diet): 6.7 ± .2 days | Max Larval Wt ([4]; 1 mM in diet): 9.50 g | Mean No. of Eggs ([4]; 1 mM in diet): 71 ± 8 | No. of female Adults ([4]; 1 mM in diet): 11 | Total No. of Adults ([4]; 1 mM in diet): 15 | % Adult Emergence ([4]; 2.5 mM in diet): 86% | % Adults ([4]; 2.5 mM in diet): 86% | % Malformed Adults ([4]; 2.5 mM in diet): 0% | % Pupation ([4]; 2.5 mM in diet): 100% | Days to Max Wt ([4]; 2.5 mM in diet): 8.7 ± 0.5 days | Max Larval Wt ([4]; 2.5 mM in diet): 8.03 g | Mean No. of Eggs ([4]; 2.5 mM in diet): 21 ± 9 | No. of female Adults ([4]; 2.5 mM in diet): 9 | Total No. of Adults ([4]; 2.5 mM in diet): 12 | maximum larval weight and mean number of eggs ([4]; 2.5 mM in diet): reduced maximum larval weight and the mean number of eggs | % Adult Emergence ([4]; 5 mM in diet): 13% | % Malformed Adults ([4]; 5 mM in diet): 50% | % Pupation ([4]; 5 mM in diet): 13% | Days to Max Wt ([4]; 5 mM in diet): 10.0 ± 4.2 days | Max Larval Wt ([4]; 5 mM in diet): 6.13 ± .62 g | No. of female Adults ([4]; 5 mM in diet): 0 | larval mortality ([4]; 5 mM in diet): all or nearly all larvae died | weight gain of surviving larvae ([4]; 5 mM in diet): no weight gain for 4 or more days | wrinkled or crumpled wings of moths ([4]; 5 mM in diet): observed in significant numbers of moths | larvae dead by day two ([4]; 5 mM in diet, day two): 60% | Total No. of Adults [4, 13]: 2 | oral activity [4]: good oral activity | larval mortality (acute toxicity) ([4]; in 24-72 hours, summary of Tables I and II): 100% | time to 100% larval mortality ([4]; summary of Tables I and II): 24 to 72 h | Result [10]: No effect | effect on larval development time, pupal weight or time to adult emergence (H. virescens): little effect | mortality at 7150 µg/g [11]: 100% | mortality at 1000 µg/g [12]: 100% | time to 100% mortality (Musca domestica (Adult)): ≤ 1.5 h | mortality at 25000 µg/g (Musca domestica (Adult); Musca domestica, topical, approx. 20 mg, 2/in 1.5 hr): 100%
